Our source for the capsule production and filamentation values is PMC12505902, “Inhibitors of trehalose-6-phosphate synthase activity in fungal pathogens compromise thermal tolerance pathways” (mBio, 2025).

One assay concerns C. neoformans WT H99. Put plainly: C. neoformans capsule assay (India Ink). The assay is classed as cell-based. The settings on record: 0.1, 0.5 and 1 mM 4456dh, 72 hours at 30°C, dose-dependent. The method, then: Fig 5 4456dh treatment results in reduced trehalose accumulation and a decrease in Tps1-dependent virulence factors. Trehalose accumulation measurements for C. albicans (A) and C. neoformans (B) cultured at indicated temperatures in the absence or presence of 0.5 mM 4456dh. Trehalose was measured using a colorimetric glucose assay after treatment of cultures with trehalase. Statistical comparisons were done with a one-way analysis of variance (ANOVA) analysis followed by a post hoc Tukey’s test. Error bars represent SE. (C) C. albicans WT strain SC5314 cells were treated with 0.5 mM, 1.0 mM, and 5 mM 4456dh. Untreated C. albicans WT cells and the C. albicans tps1Δ/tps1Δ deletion strain were included in this experiment as positive and negative controls, respectively. Increasing concentrations of 4456dh negatively affect filamentation in C. albicans in YPD plus 10% fetal bovine serum incubated at 37°C for 2 hours. Representative images from two independent experiments are shown. The scale bars represent 10 microns. (D) Analysis of capsule formation in C. neoformans WT H99 using India Ink counter-staining in cells treated with 0.1 mM, 0.5 mM, and 1 mM 4456dh. […] Cells were harvested, stained in India Ink, and analyzed using differential interference contrast imaging. […]
190 (Zeiss). The size of the capsule of > 100 cells per 4456dh treatment was quantified using Image […]

Assay [1] has as its system C. albicans WT strain SC5314. The assay can be described thus: C. albicans filamentation assay (serum-induced). In kind it is cell-based. The settings on record: YPD plus 10% fetal bovine serum, 37°C, 2 hours; sub-MIC concentration (5 µM as printed).

`Cn1cc(-c2csc(NC(=O)Cc3ccccn3)n2)cn1` [Compound 4456dh]: the capsule production entry with C. neoformans WT H99 is “capsule production was affected”. Also, the filamentation entry in assay [1] is “complete inhibition of filamentation”.
